Experimental data as given in PMC10344949, “Arachidonic acid reverses cholesterol and zinc inhibition of human voltage-gated proton channels” (The Journal of Biological Chemistry, 2023).

Molecular target: T1, hHv1 (human voltage-gated proton channel) (Homo sapiens, UniProt Q96D96)
T1 construct: gene HVCN1; no truncation stated
T1 sequence (Q96D96 1-273): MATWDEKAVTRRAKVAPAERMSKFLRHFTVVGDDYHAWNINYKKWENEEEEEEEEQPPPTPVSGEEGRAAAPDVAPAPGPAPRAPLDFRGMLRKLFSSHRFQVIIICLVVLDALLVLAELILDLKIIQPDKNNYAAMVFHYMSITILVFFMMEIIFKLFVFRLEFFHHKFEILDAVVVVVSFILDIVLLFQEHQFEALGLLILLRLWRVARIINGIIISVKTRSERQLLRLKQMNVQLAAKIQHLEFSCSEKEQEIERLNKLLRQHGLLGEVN
Test: liposome proton flux assay (ACMA quenching), Hill fit
Assay type: biochemical
Settings: read-out: half activation concentration (Kd)

- EC50: 7.2 µM
Structure (SMILES): CCCCC/C=C\C/C=C\C/C=C\C/C=C\CCCC(=O)O [arachidonic acid]
